# Columns and labels:
# GAL4(DBD)-mouse PXR(LBD) = biological target: T1, GAL4(DBD)-mouse PXR(LBD) (Mus musculus, UniProt O54915); test: luciferase reporter transactivation in HG5LN GAL4-mPXR cells; assay type: cell-based; conditions: dabrafenib, SR12813, PCN 3 μM; clotrimazol 1 μM
# T1 construct: together with the pSG5-GAL4(DBD)-h/m/zfPXR(LBD)-puro plasmids; expressed in transfected cells; host or cells: HeLa (HG5LN)
# T1 sequence (O54915 143-430 limits assumed): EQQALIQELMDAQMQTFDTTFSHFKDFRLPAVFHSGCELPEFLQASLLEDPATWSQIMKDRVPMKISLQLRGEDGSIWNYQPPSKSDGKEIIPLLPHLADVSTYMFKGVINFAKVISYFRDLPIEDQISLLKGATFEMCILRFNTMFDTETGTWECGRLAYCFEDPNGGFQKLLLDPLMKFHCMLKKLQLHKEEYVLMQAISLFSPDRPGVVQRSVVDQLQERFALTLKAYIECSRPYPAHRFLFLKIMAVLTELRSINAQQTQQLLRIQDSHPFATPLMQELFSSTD
# Description: The different reporter cell lines used in this study are summarized in Supplementary Table S1. HG5LN GAL4-m/zfPXR cells were obtained as previously reported for HG5LN GAL4-hPXR cells. Briefly, Hela cells were stably transfected with the GAL4RE5-βGlob-Luc-SVNeo plasmid alone or together with the pSG5-GAL4(DBD)-h/m/zfPXR(LBD)-puro plasmids leading to the HG5LN and HG5LN-h/m/zfPXR cell lines, respectively. HG5LN GAL4-hCAR and GAL4-hCAR-APYLT cells were obtained in the same way.
# LS174T-hPXR cells = test: LS174T-hPXR proliferation assay (P-screen) after SPA70 pretreatment; assay type: cell-based, human; conditions: pretreated with SPA70 100 nM; 7 days; read-out: potency (EC50) on proliferation
# Procedure: We developed a new proliferation test that we called the P-screen to measure the effects of compounds with PXR activity on the growth of LS174T-hPXR cells. This test uses the same principle as that for E-screen that was used for measuring the effects of estrogens on the proliferation of MCF-7 breast cancer cells. […] The medium was then removed, and cells were treated with increasing concentrations of the different compounds for 7 days. Medium was removed, and 0.1 mL of MTT solution (0.5 mg/mL) was added to each well. The MTT-containing medium was removed 4 h after incubation, and DMSO was added to each well. After shaking, the plates were read in absorbance at 540 nm. Results were expressed as percentage of proliferation with respect to the hormone-free control (100%). Data were obtained by dose–response curves plotted as percentage of proliferation as a function of concentrations.
# [1] = tested on: hPXR target genes (CYP3A4, ABCG2, FGF19) in LS174T-hPXR cells; test: RT-qPCR of hPXR target genes in LS174T-hPXR cells; assay type: cell-based, human
# Procedure: (§1) Total RNA was isolated and purified using “Zymo Research—Quick RNA mini prep” kit for LS174T-hPXR cells and using Trizol reagent (Thermo Fisher Scientific, Illkirch-Graffenstaden, France) for primary human hepatocytes and HepaRG according to the manufacturer’s protocol. The concentration and the purity of isolated RNA were measured using a spectrophotometer NanoVue (GE health care life sciences, Velizy-Villacoublay, France). Reverse transcription was performed with the qScript cDNA SuperMix (VWR, Fontenay-sous-Bois, France) for LS174-hPXR and HepaRG cells and using a random hexaprimer and the MMLV Reverse Transcriptase Kit (Life Technologies) for primary human hepatocytes. Quantitative polymerase chain reactions were performed using SYBR green (Qiagen, Les Ulis, France) and specific primers (Supplementary Table S2) with the LightCycler®-480 real-time PCR system (Roche Diagnostics, Meylan, France). The relative amount of RNA was calculated with the 2^ΔΔCT method, and gene expression was normalized using GAPDH or RPLP0. In Figure 5AB, the level of expression was compared with the mean level of the corresponding gene expression in DMSO-treated cells and expressed as n-fold ratio.
# [2] = tested on: CYP3A4 and CYP2B6 genes in primary human hepatocytes; test: RT-qPCR of hPXR target genes in primary human hepatocytes; assay type: cell-based; conditions: three donors, 48 h
# Description: Liver samples were obtained from the Biologic Resource Center of Montpellier University Hospital (CRB-CHUM; http://www.chumontpellier.fr; Biobank ID: BB-0033-00031), and this study benefitted from the expertise of Dr. Benjamin Rivière (hepatogastroenterology sample collection) and Dr. Edouard Tuaillon (CRB-CHUM manager). Samples were obtained from livers of adult patients who underwent liver resections for medical reasons unrelated to our research program, or from anonymous donors when the liver was considered unsuitable for organ transplantation. The use of human specimens for scientific purposes was approved by the French National Ethics Committee. Written or oral informed consent was obtained from each patient or family prior to surgery. The clinical characteristics of the liver donors are presented in Supplementary Table S2. Hepatocytes were isolated by using a two-step perfusion protocol and cultured as described previously.
# as §1
SMILES,activation of mouse PXR LBD (luciferase) (GAL4(DBD)-mouse PXR(LBD)),EC50 (LS174T-hPXR cells) [nM],ABCG2 expression increase ([1]; 24 h) [fold],CYP3A4 expression increase ([1]; 24 h) [fold],concentration of maximal induction of CYP3A4 expression ([1]; 24 h) [µM],FGF19 expression induction ([1]; highest concentration used (3 µM)) [fold],induction of CYP2B6 gene expression [2],induction of CYP3A4 gene expression [2]
"CC(=O)[C@H]1[C@H](C#N)C[C@H]2[C@@H]3CC=C4C[C@@H](O)CC[C@]4(C)[C@H]3CC[C@@]21C [PCN, Pregnenolone 16 alpha-carbonitrile]",Specific agonist effects,–,–,–,–,–,–,–
CCOP(=O)(OCC)C(=Cc1cc(C(C)(C)C)c(O)c(C(C)(C)C)c1)P(=O)(OCC)OCC [SR12813],–,38,12,190,1,4,significantly induce,significantly induce
